# According to ChEMBL document CHEMBL4622974, “Leveraging an Open Science Drug Discovery Model to Develop CNS-Penetrant ALK2 Inhibitors for the Treatment of Diffuse Intrinsic Pontine Glioma” (J Med Chem, 2020):
# Columns and labels:
# [1] = molecular target: hERG (KCNH2) (Homo sapiens, UniProt Q12809); assay: Displacement of [3H]dofetilide from recombinant human ERG at 10 uM after 60 mins by scintillation counting analysis; conditions: probe [3H]dofetilide
# [2] = Unbound brain-to-plasma concentration ratio in CD-1 mouse plasma at 1 mg/kg, iv measured at 2 hrs; format: ADME, organism-based; conditions: read-out: K(p,uu,brain)
# [3] = Toxicity in C57BL/6 mouse assessed as body weight loss at 100 mg/kg, po QD administered for 5 days measured after 24 hrs relative to control; format: organism-based; conditions: in vivo
# [4] = molecular target: Activin receptor type-1-like (Homo sapiens, UniProt P37023); assay: Inhibition of human ALK1 using casein as substrate in presence of [gamma-33P]-ATP by radiometric hotspot assay
# [5] = Unbound drug level in CD-1 mouse brain at 1 mg/kg, iv measured at 2 hrs; format: ADME, organism-based; conditions: in vivo
# [6] = molecular target: Cytochrome P450 2C8 (Homo sapiens, UniProt P10632); assay: Inhibition of CYP2C8 in human liver microsomes using paclitaxel as substrate incubated for 20 mins in presence of NADPH by LC/MS/MS analysis; format: ADME
# [7] = Toxicity in C57BL/6 mouse assessed as body weight loss at 25 mg/kg, po BID administered for 5 days measured after 24 hrs relative to control; format: organism-based; conditions: in vivo
# [8] = molecular target: Cannabinoid receptor 1 (Homo sapiens, UniProt P21554); assay: Inhibition of recombinant human CB1 incubated for 60 mins by scintillation counting method
# [9] = test system: sodium channel site 2; assay: Inhibition of rat sodium channel site2 at 10 uM incubated for 60 mins by scintillation counting method
# [10] = molecular target: Cytochrome P450 3A4 (Homo sapiens, UniProt P08684); assay: Inhibition of CYP3A4 in human liver microsomes using midazolam as substrate incubated for 5 mins in presence of NADPH by LC/MS/MS analysis; format: ADME
# [11] = Toxicity in C57BL/6 mouse assessed as gross pathology at 25 mg/kg, po BID administered for 5 days measured after 24 hrs relative to control; format: organism-based; conditions: in vivo
# [12] = molecular target: Cytochrome P450 2B6 (Homo sapiens, UniProt P20813); assay: Inhibition of CYP2B6 in human liver microsomes using bupropion as substrate incubated for 20 mins in presence of NADPH by LC/MS/MS analysis; format: ADME
# [13] = Toxicity in C57BL/6 mouse assessed as gross pathology at 100 mg/kg, po QD administered for 5 days measured after 24 hrs relative to control; format: organism-based; conditions: in vivo
# [14] = Toxicity in C57BL/6 mouse assessed as mouse death at 25 mg/kg, po BID administered for 5 days measured after 24 hrs; format: organism-based; conditions: in vivo
# [15] = molecular target: Serine/threonine-protein kinase NLK (Homo sapiens, UniProt Q9UBE8); assay: Inhibition of NLK (unknown origin)
# [16] = molecular target: Cytochrome P450 2C19 (Homo sapiens, UniProt P33261); assay: Inhibition of CYP2C19 in human liver microsomes using mephenytoin as substrate incubated for 20 mins in presence of NADPH by LC/MS/MS analysis; format: ADME
# [17] = molecular target: Alpha-2A adrenergic receptor (Homo sapiens, UniProt P08913); assay: Inhibition of recombinant human adrenergic alpha2A receptor at 10 uM incubated for 60 mins by scintillation counting method relative to control
# [18] = molecular target: Bone morphogenetic protein receptor type-1B (Homo sapiens, UniProt O00238); assay: Inhibition of human ALK6 using casein as substrate in presence of [gamma-33P]-ATP by radiometric hotspot assay
# [19] = Mutagenicity in Salmonella typhimurium by mini Ames test; format: toxicity; conditions: salmonella enterica subsp. enterica serovar typhimurium
# [20] = Toxicity in C57BL/6 mouse assessed as mouse death at 100 mg/kg, po QD administered for 5 days measured after 24 hrs; format: organism-based; conditions: in vivo
# [21] = molecular target: Serine/threonine-protein kinase SIK2 (Homo sapiens, UniProt Q9H0K1); assay: Inhibition of SIK2 (unknown origin)
# [22] = molecular target: Cytochrome P450 2C9 (Homo sapiens, UniProt P11712); assay: Inhibition of CYP2C9 in human liver microsomes using tolbutamide as substrate incubated for 20 mins in presence of NADPH by LC/MS/MS analysis; format: ADME
# [23] = Toxicity in C57BL/6 mouse assessed as mouse death at 25 mg/kg, po QD administered for 5 days measured after 24 hrs; format: organism-based; conditions: in vivo
# [24] = molecular target: T1, TGF-beta receptor type-1 (Homo sapiens, UniProt P36897); assay: Inhibition of recombinant human ALK5 expressed in HEK293 cells transfected with CAGA-luciferase and Renilla luciferase reporter after 24 hrs by dual luciferase reporter assay; format: cell-based
# T1 sequence (P36897 whole entry): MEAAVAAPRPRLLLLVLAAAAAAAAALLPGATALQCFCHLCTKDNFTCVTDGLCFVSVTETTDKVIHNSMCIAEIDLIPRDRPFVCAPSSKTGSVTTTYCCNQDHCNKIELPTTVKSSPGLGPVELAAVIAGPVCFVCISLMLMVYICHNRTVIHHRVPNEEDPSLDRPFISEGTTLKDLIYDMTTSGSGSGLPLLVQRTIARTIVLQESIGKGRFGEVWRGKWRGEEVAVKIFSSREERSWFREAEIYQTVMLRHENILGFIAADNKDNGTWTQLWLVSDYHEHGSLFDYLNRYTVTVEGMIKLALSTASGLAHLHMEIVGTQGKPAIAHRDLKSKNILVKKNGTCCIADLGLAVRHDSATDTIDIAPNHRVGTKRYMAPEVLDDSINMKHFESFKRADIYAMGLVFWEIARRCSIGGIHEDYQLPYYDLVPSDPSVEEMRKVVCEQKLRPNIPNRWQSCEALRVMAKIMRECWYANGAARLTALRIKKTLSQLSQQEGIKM
# [25] = molecular target: T2, Activin receptor type-1 (Homo sapiens, UniProt Q04771); assay: Inhibition of human ALK2 using casein as substrate in presence of [gamma-33P]-ATP by radiometric hotspot assay
# T2 sequence (Q04771 whole entry): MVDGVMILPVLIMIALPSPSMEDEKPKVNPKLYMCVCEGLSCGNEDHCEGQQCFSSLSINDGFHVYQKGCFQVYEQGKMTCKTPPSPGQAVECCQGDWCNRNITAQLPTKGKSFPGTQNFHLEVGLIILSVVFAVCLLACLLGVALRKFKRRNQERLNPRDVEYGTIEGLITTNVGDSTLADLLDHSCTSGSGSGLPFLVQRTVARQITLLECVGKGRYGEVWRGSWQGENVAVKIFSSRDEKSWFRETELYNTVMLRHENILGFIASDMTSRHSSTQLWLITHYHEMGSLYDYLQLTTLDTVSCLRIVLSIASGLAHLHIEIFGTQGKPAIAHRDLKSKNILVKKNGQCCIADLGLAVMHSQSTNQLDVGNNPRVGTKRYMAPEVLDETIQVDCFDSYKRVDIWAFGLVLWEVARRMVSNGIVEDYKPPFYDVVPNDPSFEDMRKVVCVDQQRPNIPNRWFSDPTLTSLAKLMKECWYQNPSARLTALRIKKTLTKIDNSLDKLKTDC
# [26] = molecular target: T1, TGF-beta receptor type-1; assay: Inhibition of human ALK5 using casein as substrate in presence of [gamma-33P]-ATP by radiometric hotspot assay; format: ADME
# Chain of Cytochrome P450 3A4 (P08684 whole entry): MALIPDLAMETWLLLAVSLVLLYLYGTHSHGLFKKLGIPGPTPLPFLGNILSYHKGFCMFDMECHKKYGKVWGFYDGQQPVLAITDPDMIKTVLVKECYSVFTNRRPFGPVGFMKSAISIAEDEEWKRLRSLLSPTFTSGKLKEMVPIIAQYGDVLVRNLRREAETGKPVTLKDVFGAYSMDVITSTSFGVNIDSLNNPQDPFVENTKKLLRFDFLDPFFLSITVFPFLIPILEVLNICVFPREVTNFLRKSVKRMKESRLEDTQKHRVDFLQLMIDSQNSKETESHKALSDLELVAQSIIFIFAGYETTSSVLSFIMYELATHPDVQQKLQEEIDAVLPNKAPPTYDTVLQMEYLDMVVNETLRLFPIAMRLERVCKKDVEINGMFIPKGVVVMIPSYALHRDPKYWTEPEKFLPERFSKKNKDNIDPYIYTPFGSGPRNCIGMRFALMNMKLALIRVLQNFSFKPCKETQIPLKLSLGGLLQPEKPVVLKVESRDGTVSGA
# Chain of Cytochrome P450 2C8 (P10632 whole entry): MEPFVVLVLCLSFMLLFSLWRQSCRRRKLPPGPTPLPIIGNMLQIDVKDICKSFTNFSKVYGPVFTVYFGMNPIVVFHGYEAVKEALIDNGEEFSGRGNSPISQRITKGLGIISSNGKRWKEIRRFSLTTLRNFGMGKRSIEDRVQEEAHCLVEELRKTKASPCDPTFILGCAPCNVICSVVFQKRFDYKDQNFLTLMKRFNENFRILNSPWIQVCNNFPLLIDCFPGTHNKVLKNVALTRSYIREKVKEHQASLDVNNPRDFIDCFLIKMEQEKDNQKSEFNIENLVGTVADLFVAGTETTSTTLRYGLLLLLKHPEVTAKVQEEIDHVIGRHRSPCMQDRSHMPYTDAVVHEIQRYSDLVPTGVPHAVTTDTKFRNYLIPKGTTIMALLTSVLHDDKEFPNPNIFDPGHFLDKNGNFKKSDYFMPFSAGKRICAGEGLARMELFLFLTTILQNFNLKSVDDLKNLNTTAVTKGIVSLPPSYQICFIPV
# Chain of Cytochrome P450 2B6 (P20813 whole entry): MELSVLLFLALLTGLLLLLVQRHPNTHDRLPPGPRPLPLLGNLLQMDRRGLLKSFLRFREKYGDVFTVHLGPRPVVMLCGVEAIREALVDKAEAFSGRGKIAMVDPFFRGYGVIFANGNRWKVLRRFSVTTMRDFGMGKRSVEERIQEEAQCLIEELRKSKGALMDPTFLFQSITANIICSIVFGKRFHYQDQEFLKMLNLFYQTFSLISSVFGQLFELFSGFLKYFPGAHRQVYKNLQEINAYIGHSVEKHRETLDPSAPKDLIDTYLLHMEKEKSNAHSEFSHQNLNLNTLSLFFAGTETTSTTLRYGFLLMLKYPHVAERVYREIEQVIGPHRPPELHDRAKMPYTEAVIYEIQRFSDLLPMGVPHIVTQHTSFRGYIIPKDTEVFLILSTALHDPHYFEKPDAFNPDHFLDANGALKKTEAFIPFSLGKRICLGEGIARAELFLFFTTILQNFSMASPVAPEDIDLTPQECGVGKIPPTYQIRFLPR
# Chain of Serine/threonine-protein kinase NLK (Q9UBE8 whole entry): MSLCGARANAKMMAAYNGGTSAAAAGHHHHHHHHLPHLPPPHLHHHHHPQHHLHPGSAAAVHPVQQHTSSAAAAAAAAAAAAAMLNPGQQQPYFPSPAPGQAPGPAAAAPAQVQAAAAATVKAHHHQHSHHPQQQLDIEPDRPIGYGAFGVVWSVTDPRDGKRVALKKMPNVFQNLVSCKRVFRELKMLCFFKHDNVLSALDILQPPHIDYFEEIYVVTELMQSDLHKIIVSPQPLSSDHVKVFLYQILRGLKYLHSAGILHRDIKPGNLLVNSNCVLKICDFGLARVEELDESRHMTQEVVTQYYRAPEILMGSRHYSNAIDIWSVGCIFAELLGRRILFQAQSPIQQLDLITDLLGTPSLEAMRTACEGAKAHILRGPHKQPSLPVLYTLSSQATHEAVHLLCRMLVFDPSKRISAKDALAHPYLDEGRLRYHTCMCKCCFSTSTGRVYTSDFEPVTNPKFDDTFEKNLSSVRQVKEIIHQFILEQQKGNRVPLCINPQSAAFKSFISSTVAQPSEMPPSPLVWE
# Chain of Cytochrome P450 2C9 (P11712 whole entry): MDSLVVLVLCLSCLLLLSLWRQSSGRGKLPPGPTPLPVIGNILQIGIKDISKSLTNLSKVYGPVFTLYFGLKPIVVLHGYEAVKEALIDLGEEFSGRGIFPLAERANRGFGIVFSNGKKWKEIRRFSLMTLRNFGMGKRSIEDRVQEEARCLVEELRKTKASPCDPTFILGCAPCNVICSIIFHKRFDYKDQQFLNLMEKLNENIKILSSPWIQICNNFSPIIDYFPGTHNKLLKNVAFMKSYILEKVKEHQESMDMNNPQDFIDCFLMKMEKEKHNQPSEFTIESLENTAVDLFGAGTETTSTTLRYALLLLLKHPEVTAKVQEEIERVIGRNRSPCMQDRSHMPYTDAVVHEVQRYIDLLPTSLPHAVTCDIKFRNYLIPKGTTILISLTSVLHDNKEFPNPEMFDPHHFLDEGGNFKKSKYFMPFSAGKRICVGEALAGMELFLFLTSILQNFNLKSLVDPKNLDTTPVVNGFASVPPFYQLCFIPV
# Chain of Activin receptor type-1-like (P37023 whole entry): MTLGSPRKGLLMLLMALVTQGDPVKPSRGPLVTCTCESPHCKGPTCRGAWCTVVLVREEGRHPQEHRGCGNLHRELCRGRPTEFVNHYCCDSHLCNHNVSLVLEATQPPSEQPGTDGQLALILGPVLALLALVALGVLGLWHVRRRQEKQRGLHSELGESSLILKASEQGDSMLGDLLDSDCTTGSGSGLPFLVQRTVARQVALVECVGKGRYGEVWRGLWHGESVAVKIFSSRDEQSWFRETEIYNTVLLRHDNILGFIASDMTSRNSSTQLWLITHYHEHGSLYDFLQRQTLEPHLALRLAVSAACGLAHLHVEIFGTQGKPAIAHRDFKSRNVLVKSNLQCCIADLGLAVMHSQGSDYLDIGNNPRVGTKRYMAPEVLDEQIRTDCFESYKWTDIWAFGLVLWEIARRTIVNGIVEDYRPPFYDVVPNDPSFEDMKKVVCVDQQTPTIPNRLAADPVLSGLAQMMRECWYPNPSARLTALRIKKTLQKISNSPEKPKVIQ
# Chain of Cannabinoid receptor 1 (P21554 whole entry): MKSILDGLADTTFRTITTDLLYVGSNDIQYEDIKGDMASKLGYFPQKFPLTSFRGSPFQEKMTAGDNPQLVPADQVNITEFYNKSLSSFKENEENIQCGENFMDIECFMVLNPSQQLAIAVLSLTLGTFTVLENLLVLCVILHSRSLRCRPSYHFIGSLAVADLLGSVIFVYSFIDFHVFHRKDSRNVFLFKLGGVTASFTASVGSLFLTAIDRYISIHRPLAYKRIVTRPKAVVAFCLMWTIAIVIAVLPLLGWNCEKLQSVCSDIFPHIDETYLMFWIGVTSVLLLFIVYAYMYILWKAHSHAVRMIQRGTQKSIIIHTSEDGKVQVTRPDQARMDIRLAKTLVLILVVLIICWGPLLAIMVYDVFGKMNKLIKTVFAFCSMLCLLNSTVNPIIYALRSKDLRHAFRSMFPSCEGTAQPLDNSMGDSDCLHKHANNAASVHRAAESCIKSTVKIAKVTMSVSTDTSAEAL
# Chain of hERG (KCNH2) (Q12809 whole entry): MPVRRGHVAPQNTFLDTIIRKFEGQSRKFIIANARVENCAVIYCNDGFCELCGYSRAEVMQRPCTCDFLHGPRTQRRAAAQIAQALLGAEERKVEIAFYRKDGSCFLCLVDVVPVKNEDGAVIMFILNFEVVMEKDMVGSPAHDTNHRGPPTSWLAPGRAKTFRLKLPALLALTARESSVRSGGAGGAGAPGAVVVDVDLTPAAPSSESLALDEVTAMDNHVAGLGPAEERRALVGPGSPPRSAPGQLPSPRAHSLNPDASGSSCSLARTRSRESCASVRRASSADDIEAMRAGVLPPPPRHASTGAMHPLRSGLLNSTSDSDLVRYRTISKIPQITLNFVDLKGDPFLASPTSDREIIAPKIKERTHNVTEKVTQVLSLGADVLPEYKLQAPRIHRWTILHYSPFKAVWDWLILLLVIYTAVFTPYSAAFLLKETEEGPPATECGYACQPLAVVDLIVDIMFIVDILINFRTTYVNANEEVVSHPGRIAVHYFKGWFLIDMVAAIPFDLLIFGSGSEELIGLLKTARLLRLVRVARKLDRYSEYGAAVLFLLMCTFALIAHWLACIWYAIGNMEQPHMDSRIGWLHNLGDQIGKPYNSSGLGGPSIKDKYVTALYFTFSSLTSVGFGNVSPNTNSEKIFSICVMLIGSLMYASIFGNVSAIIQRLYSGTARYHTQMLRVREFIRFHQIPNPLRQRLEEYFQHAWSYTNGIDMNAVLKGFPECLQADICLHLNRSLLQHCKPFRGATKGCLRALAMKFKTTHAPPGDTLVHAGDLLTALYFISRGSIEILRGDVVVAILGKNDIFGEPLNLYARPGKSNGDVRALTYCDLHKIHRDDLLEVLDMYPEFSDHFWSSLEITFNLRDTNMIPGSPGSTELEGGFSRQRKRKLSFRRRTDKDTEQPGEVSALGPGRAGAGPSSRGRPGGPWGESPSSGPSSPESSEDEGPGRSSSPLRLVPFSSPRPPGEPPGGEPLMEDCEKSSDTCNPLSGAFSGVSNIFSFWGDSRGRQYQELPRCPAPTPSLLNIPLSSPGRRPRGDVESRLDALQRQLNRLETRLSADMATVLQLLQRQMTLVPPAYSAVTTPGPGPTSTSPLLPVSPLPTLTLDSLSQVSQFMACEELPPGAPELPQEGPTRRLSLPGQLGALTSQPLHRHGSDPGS
structure (smiles),measurement,setting,value
COc1cc(-c2cncc(-c3ccc(N4CCNCC4)cc3)c2C)cc(OC)c1OC,"inhibition at 1 h, 10 µM",[1],69%
same,Kp uu at 2 h,[2],0.3
same,Activity,[3],Non-Toxic
same,IC50,[4],15 nM
same,Drug uptake(free),[5],3.7 nM
same,IC50,[6],> 30 µM
same,Activity,[7],Non-Toxic
same,IC50,[8],1720 nM
same,"inhibition at 1 h, 10 µM",[9],72%
same,IC50,[10],> 30 µM
same,Activity,[11],Non-Toxic
same,IC50,[12],> 30 µM
same,Activity,[13],Non-Toxic
same,Activity,[14],Non-Toxic
same,IC50,[15],336 to 924 nM
same,IC50,[16],> 30 µM
same,"inhibition at 1 h, 10 µM",[17],90%
same,IC50,[18],68 nM
same,Activity,[19],Non-Toxic
same,Activity,[20],Non-Toxic
same,IC50,[21],336 to 924 nM
same,IC50,[22],> 30 µM
same,Activity,[23],Non-Toxic
COc1cc(-c2cncc(-c3ccc(C4CCN(C)CC4)cc3)c2C)cc(OC)c1OC,IC50,[24],3.33 µM
same,IC50,[25],7 nM
same,IC50,[26],> 5 µM
